Measured values as given in US8129366B2, “VLA-4 inhibitory drug” (Daiichi Sankyo Company, Limited, priority 2005, dated 2012).

Target: T1, hα4 and β1 integrins (Homo sapiens, UniProt P05556+P13612)
T1 construct: expressed in transfected cells; host or cells: CHO cells
Assay: In vitro inhibition of binding between CHO cells expressing hα4 and β1 integrins and Eu3+-hVCAM-1 D1D7-IgG
Conditions: for Ki: CHO cells expressing hα4 and β1 integrins, Eu3+-hVCAM-1 D1D7-IgG ligand, without HSA; for IC50: in the presence of 3% human serum albumin (HSA final concentration 3%)
Outline: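 Transfected CHO cells, cultured 2 days, were incubated with compound and Eu³⁺-hVCAM-1 D1D7-IgG (diluted to 2 nM) for 1 h at room temperature. Buffer was 25 mM HEPES pH 7.5 with 1 mM Ca²⁺, 1 mM Mg²⁺, 4 mM Mn²⁺ and 0.1% BSA, ±3% HSA final. Cells were washed at 4 °C and read by DELFIA time-resolved fluorescence; Ki was derived from IC50 using the Scatchard Kd.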

T1 sequence (P13612 34-1032): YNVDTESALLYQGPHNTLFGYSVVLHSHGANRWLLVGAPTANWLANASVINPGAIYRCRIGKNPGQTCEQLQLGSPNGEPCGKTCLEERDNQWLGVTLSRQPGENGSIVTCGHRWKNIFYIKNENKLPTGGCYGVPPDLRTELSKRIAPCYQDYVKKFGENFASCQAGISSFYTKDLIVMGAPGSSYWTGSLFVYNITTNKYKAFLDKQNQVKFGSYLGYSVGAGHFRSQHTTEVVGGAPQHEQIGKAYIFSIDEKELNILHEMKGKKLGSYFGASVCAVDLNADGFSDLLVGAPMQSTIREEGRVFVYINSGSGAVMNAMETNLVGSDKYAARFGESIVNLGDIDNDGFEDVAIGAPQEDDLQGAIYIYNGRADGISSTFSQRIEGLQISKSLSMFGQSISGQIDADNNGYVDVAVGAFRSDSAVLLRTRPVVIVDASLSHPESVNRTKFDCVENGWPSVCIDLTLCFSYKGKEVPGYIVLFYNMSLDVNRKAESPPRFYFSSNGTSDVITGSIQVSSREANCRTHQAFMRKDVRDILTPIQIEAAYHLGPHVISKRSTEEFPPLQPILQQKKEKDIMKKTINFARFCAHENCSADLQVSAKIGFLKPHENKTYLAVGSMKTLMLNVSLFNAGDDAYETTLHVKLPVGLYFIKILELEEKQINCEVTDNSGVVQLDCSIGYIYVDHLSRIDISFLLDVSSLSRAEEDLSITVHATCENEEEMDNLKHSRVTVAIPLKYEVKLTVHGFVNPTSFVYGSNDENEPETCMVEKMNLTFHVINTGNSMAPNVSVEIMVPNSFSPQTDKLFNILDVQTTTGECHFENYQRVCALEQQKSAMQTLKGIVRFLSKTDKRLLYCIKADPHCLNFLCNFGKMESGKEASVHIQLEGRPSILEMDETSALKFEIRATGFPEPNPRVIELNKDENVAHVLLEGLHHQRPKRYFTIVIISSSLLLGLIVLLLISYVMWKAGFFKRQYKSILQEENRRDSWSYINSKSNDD
T1 sequence (P05556 21-798): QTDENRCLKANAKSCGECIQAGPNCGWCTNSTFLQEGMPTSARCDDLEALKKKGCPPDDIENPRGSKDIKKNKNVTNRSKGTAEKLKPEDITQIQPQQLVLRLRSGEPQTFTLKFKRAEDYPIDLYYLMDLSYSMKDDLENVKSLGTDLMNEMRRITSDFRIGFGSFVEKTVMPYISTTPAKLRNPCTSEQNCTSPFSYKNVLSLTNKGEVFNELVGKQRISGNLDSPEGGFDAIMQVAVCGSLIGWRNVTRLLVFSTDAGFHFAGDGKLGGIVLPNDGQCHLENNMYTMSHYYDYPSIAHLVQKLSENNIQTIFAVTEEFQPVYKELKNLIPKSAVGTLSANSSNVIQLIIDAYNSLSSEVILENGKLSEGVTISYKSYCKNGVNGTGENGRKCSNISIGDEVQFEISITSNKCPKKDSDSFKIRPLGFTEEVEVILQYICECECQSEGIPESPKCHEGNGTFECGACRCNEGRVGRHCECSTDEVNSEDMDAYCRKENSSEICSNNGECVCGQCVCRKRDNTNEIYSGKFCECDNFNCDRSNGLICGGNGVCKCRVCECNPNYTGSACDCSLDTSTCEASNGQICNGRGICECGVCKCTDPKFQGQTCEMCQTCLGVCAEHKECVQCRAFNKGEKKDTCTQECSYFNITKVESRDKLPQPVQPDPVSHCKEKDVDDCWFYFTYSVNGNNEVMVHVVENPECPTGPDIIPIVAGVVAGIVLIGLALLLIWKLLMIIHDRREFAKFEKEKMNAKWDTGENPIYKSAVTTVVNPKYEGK

| SMILES | Ki [nM] | IC50 [nM] |
| --- | --- | --- |
| O=C(Nc1cc(Cl)c(CC(=O)N2C[C@@H](N3CCCCC3)C[C@H]2CO[C@H]2CC[C@H](C(=O)O)CC2)cc1Cl)c1csc2ccccc12 [Example 95, Trans-4-[1-[[4-[(benzo[b]thiophen-3-ylcarbonyl)amino]-2,5-dichlorophenyl]acetyl]-(4S)-(piperidin-1-yl)-(2S)-pyrrolidinylmethoxy]cyclohexanecarboxylic acid] | 1.3 | 5.3 |
| O=C(Nc1cc(F)c(CC(=O)N2C[C@@H](N3CCC(F)CC3)C[C@H]2CO[C@H]2CC[C@H](C(=O)O)CC2)cc1Cl)c1csc2ccccc12 [Example 100, Trans-4-[1-[[4-[(benzo[b]thiophen-3-ylcarbonyl)amino]-5-chloro-2-fluorophenyl]acetyl]-(4S)-(4-fluoropiperidin-1-yl)-(2S)-pyrrolidinylmethoxy]cyclohexanecarboxylic acid] | 0.91 | 3.9 |
| C[C@@H]1CN([C@H]2C[C@@H](CO[C@H]3CC[C@H](C(=O)O)CC3)N(C(=O)Cc3cc(Cl)c(NC(=O)c4c[nH]c5ccccc45)cc3F)C2)C[C@H](C)O1 [Example 90, Trans-4-[1-[[5-chloro-2-fluoro-4-[(1H-indol-3-ylcarbonyl)amino]phenyl]acetyl]-(4S)-(cis-2,6-dimethylmorpholin-4-yl)-(2S)-pyrrolidinylmethoxy]cyclohexanecarboxylic acid] | 1.2 | 2.4 |
| COC[C@H]1CCCN1[C@H]1C[C@@H](CO[C@H]2CC[C@H](C(=O)O)CC2)N(C(=O)Cc2cc(Cl)c(NC(=O)c3csc4ccccc34)cc2F)C1 [Example 44, Trans-4-[1-[[4-[(benzo[b]thiophen-3-ylcarbonyl)amino]-5-chloro-2-fluorophenyl]acetyl]-(4S)-[(2R)-methoxymethylpyrrolidin-1-yl]-(2S)-pyrrolidinylmethoxy]cyclohexanecarboxylic acid] | 6.8 | 24 |
| CC1(C)O[C@H]2CN([C@H]3C[C@@H](CO[C@H]4CC[C@H](C(=O)O)CC4)N(C(=O)Cc4cc(Cl)c(NC(=O)c5csc6ccccc56)cc4Cl)C3)C[C@H]2O1 [Example 75, Trans-4-[1-[[4-[(benzo[b]thiophen-3-ylcarbonyl)amino]-2,5-dichlorophenyl]acetyl]-(4S)-[(3a,6a-cis)-2,2-dimethyltetrahydro[1,3]dioxo[4,5-c]pyrrol-5-yl]-(2S)-pyrrolidinylmethoxy]cyclohexanecarboxylic acid] | 0.52 | 12 |
| Cn1cc(C(=O)Nc2cc(F)c(CC(=O)N3C[C@@H](N4CCN(CC(F)F)CC4)C[C@H]3CO[C@H]3CC[C@H](C(=O)O)CC3)cc2Cl)c2ccccc21 [Example 121, Trans-4-[1-[[5-chloro-2-fluoro-4-[(1-methyl-1H-indol-3-ylcarbonyl)amino]phenyl]acetyl]-(4S)-[4-(2,2-difluoroethyl)piperazin-1-yl]-(2S)-pyrrolidinylmethoxy]cyclohexanecarboxylic acid] | 3.2 | 11 |
| C[C@@H]1CN([C@H]2C[C@@H](CO[C@H]3CC[C@H](C(=O)O)CC3)N(C(=O)Cc3ccc(NC(=O)c4cn(C)c5ccccc45)c(Cl)c3)C2)C[C@H](C)O1 [Example 85, Trans-4-[1-[[3-chloro-4-[(1-methyl-1H-indol-3-ylcarbonyl)amino]phenyl]acetyl]-(4S)-(cis-2,6-dimethylmorpholin-4-yl)-(2S)-pyrrolidinylmethoxy]cyclohexanecarboxylic acid] | 2 | 9.2 |
| CCN1CCN([C@H]2C[C@@H](CO[C@H]3CC[C@H](C(=O)O)CC3)N(C(=O)Cc3cc(Cl)c(NC(=O)c4csc5ccccc45)cc3F)C2)CC1=O [Example 154, Trans-4-[1-[[4-[(benzo[b]thiophen-3-ylcarbonyl)amino]-5-chloro-2-fluorophenyl]acetyl]-(4S)-(4-ethyl-3-oxopiperazin-1-yl)-(2S)-pyrrolidinylmethoxy]cyclohexanecarboxylic acid] | 0.92 | 9.1 |
| O=C(Nc1cc(F)c(CC(=O)N2C[C@@H](N3CCN(CC(F)(F)F)CC3)C[C@H]2CO[C@H]2CC[C@H](C(=O)O)CC2)cc1Cl)c1c[nH]c2ccccc12 [Example 131, Trans-4-[1-[[5-chloro-2-fluoro-4-[(1H-indol-3-ylcarbonyl)amino]phenyl]acetyl]-(4S)-[4-(2,2,2-trifluoroethyl)piperazin-1-yl]-(2S)-pyrrolidinylmethoxy]cyclohexanecarboxylic acid] | 1.1 | 1.8 |
| Cn1cc(C(=O)Nc2cc(F)c(CC(=O)N3C[C@@H](N4CCN(C5(C)CC5)CC4)C[C@H]3CO[C@H]3CC[C@H](C(=O)O)CC3)cc2Cl)c2ccccc21 [Example 141, Trans-4-[1-[[5-chloro-2-fluoro-4-[(1-methyl-1H-indol-3-ylcarbonyl)amino]phenyl]acetyl]-(4S)-[4-(1-methylcyclopropan-1-yl)piperazin-1-yl]-(2S)-pyrrolidinylmethoxy]cyclohexa necarboxylic acid] | 6.3 | 23 |
| C[C@@H]1COC[C@H](C)N1[C@H]1C[C@@H](CO[C@H]2CC[C@H](C(=O)O)CC2)N(C(=O)Cc2cc(Cl)c(NC(=O)c3cn(C)c4ccccc34)cc2Cl)C1 [Example 93, Trans-4-[1-[[2,5-dichloro-4-[(1-methyl-1H-indol-3-ylcarbonyl)amino]phenyl]acetyl]-(4S)-(cis-3,5-dimethylmorpholin-4-yl)-(2S)-pyrrolidinylmethoxy]cyclohexanecarboxylic acid] | 3.6 | 22 |
| COC1(C)CN([C@H]2C[C@@H](CO[C@H]3CC[C@H](C(=O)O)CC3)N(C(=O)Cc3cc(Cl)c(NC(=O)c4cn(C)c5ccccc45)cc3F)C2)C1 [Example 16, Trans-4-[1-[[5-chloro-2-fluoro-4-[(1-methyl-1H-indol-3-ylcarbonyl)amino]phenyl]acetyl]-(4S)-(3-methoxy-3-methylazetidin-1-yl)-(2S)-pyrrolidinylmethoxy]cyclohexanecarboxylic acid] | 5.3 | 41 |

More lines, in order of falling Ki, values ahead:

| Ki [nM] | IC50 [nM] | SMILES |
| --- | --- | --- |
| 18 | 52 | C[C@@H]1CC[C@@H](C)N1[C@H]1C[C@@H](CO[C@H]2CC[C@H](C(=O)O)CC2)N(C(=O)Cc2cc(Cl)c(NC(=O)c3coc4ccccc34)cc2F)C1 [Example 47, Trans-4-[1-[[4-[(benzo[b]furan-3-ylcarbonyl)amino]-5-chloro-2-fluorophenyl]acetyl]-(4S)-[(2R,5R)-dimethylpyrrolidin-1-yl]-(2S)-pyrrolidinylmethoxy]cyclohexanecarboxylic acid] |
| 6.5 | 49 | Cn1cc(C(=O)Nc2cc(Cl)c(CC(=O)N3C[C@@H](N4CC5CC4CO5)C[C@H]3CO[C@H]3CC[C@H](C(=O)O)CC3)cc2Cl)c2ccccc21 (stereo partly drawn) [Example 162, Trans-4-[1-[[2,5-dichloro-4-[1-methyl-1H-indol-3-ylcarbonylamino]phenyl]acetyl]-(4S)-[(1S,4S)-2-oxa-5-azabicyclo[2.2.1]heptan-5-yl]-(2S)-pyrrolidinylmethoxy]cyclohexanecarboxylic acid] |
| 3.9 | 13 | Cn1nc(C(=O)Nc2ccc(CC(=O)N3C[C@@H](N4CCN(CC(F)(F)F)CC4)C[C@H]3CO[C@H]3CC[C@H](C(=O)O)CC3)cc2Cl)c2ccccc21 [Example 128, Trans-4-[1-[[3-chloro-4-[(1-methyl-1H-indazol-3-ylcarbonyl)amino]phenyl]acetyl]-(4S)-[4-(2,2,2-trifluoroethyl)piperazin-1-yl]-(2S)-pyrrolidinylmethoxy]cyclohexanecarboxylic acid] |
| 3.9 | 11 | Cn1cc(C(=O)Nc2cc(F)c(CC(=O)N3C[C@@H](N4CCN(c5ccncc5)CC4)C[C@H]3CO[C@H]3CC[C@H](C(=O)O)CC3)cc2Cl)c2ccccc21 [Example 145, Trans-4-[1-[[5-chloro-2-fluoro-4-[(1-methyl-1H-indol-3-ylcarbonyl)amino]phenyl]acetyl]-(4S)-[4-(4-pyridyl)piperazin-1-yl]-(2S)-pyrrolidinylmethoxy]cyclohexanecarboxylic acid] |
| 3.6 | 5.2 | CN(C)C1CCN([C@H]2C[C@@H](CO[C@H]3CC[C@H](C(=O)O)CC3)N(C(=O)Cc3cc(Cl)c(NC(=O)c4cn(C)c5ccccc45)cc3F)C2)CC1 [Example 109, Trans-4-[1-[[5-chloro-2-fluoro-4-[(1-methyl-1H-indol-3-ylcarbonyl)amino]phenyl]acetyl]-(4S)-[4-(N,N-dimethylamino)piperidin-1-yl]-(2S)-pyrrolidinylmethoxy]cyclohexanecarboxylic acid] |
| 2.4 | 18 | C[C@@H]1CN([C@H]2C[C@@H](CO[C@H]3CC[C@H](C(=O)O)CC3)N(C(=O)Cc3cc(Cl)c(NC(=O)c4csc5ccccc45)cc3Cl)C2)C[C@H](C)O1 [Example 82, Trans-4-[1-[[4-[(benzo[b]thiophen-3-ylcarbonyl)amino]-2,5-dichlorophenyl]acetyl]-(4S)-(cis-2,6-dimethylmorpholin-4-yl)-(2S)-pyrrolidinylmethoxy]cyclohexanecarboxylic acid] |
| 1.8 | 10 | O=C(Nc1cc(F)c(CC(=O)N2C[C@@H](N3CCN(CC(F)(F)F)CC3)C[C@H]2CO[C@H]2CC[C@H](C(=O)O)CC2)cc1Cl)c1csc2ccccc12 [Example 123, Trans-4-[1-[[4-[(benzo[b]thiophen-3-ylcarbonyl)amino]-5-chloro-2-fluorophenyl]acetyl]-(4S)-[4-(2,2,2-trifluoroethyl)piperazin-1-yl]-(2S)-pyrrolidinylmethoxy]cyclohexanecarboxylic acid] |
| 1.8 | 7.6 | O=C(Nc1cc(Cl)c(CC(=O)N2C[C@@H](N3CCN(C4CC4)CC3)C[C@H]2CO[C@H]2CC[C@H](C(=O)O)CC2)cc1Cl)c1coc2ccccc12 [Example 140] |
